System: mGγ12 mRNA
Assay: Northern blot analysis of mGγ12 mRNA in liver of estrogen-treated mice
Format: in vivo, mouse
Details: liver RNA; normal male mice treated with estrogen vs ERKO male mice treated with estrogen and un-treated male mice; effect via estrogen receptor alpha, not beta
Procedure: Expressed sequence tags (EST) that represent messenger RNA (mRNA) molecules that are more abundant in the liver of normal male mice treated with estrogen than in the liver of estrogen receptor alpha knockout (ERKO) male mice also treated with estrogen were obtained by subtraction cloning. The DNA sequence of complementary DNA (cDNA) clones representing the full-length mRNA molecules corresponding to one of the above mentioned EST's was obtained.
Northern blot analysis was conducted with RNA prepared from the livers of normal male mice treated with estrogen, ERKO male mice treated with estrogen, and un-treated male mice using a hybridization probe derived from the mGγ12 cDNA.

With estrogen the “transcription of the mGγ12 gene in the liver” value was “activated”.

From patent US20030118990A1, “Novel estrogen-regulated G protein gamma subunit: compositions and methods of use” (Schering Aktiengesellschaft, priority 2000, published 2003)
